Source: patent US20240308968A1, “FUNGICIDAL SUBSTITUTED HETEROCYCLES” (FMC Corporation, priority 2021, published 2024)

How the values were obtained:
Format in all cases: in vivo
Zymoseptoria tritici = assay: Test A: preventive spray on wheat seedlings, wheat leaf blotch disease rating; conditions: 100 = 100% disease control, 0 = no control; for pest or weed control at 250 ppm / pest or weed control at 50 ppm: Zymoseptoria tritici, 456 h
Text: (§1) General protocol for preparing test suspensions for Tests A-F: the test compounds were first dissolved in acetone in an amount equal to 3% of the final volume and then suspended at the desired concentration (in ppm) in acetone and purified water (50/50 mix by volume) containing 50 to 250 ppm of the surfactant PEG400 (polyhydric alcohol esters). The resulting test suspensions were then used in Tests A-F.
The test solution was sprayed to the point of run-off on wheat seedlings. The following day the seedlings were inoculated with a spore suspension of Zymoseptoria tritici (the causal agent of wheat leaf blotch) and incubated in a saturated atmosphere at 24° C. for 48 h, and then moved to a growth chamber at 20° C. for 17 days, after which time disease ratings were made. […]

[1] = test system: Puccinia recondita f. sp. Tritici; assay: Test B: preventive spray on wheat seedlings, wheat leaf rust disease rating; conditions: 100 = 100% disease control, 0 = no control; for pest or weed control at 250 ppm / pest or weed control at 50 ppm: Puccinia recondita, 192 h
Text: as §1
The test solution was sprayed to the point of run-off on wheat seedlings. The following day the seedlings were inoculated with a spore suspension of Puccinia recondita f. sp. Tritici (the causal agent of wheat leaf rust) and incubated in a saturated atmosphere at 20° C. for 24 h, and then moved to a growth chamber at 20° C. for 7 days, after which time disease ratings were made.
(§2) The test suspension was sprayed to the point of run-off on tomato seedlings. The following day the seedlings were inoculated with a spore suspension of Alternaria solani (the causal agent of tomato early blight) and incubated in a saturated atmosphere at 27° C. for 48 h, and then moved to a growth chamber at 20° C. for 3 days, after which time visual disease ratings were made. A rating of 100 indicates 100% disease control and a rating of 0 indicates no disease control (relative to the controls). A dash (-) indicates the compound was not tested.

[2] = test system: Blumeria graminis f. sp. Tritici; assay: Test C: preventive spray on wheat seedlings, wheat powdery mildew disease rating; conditions: 100 = 100% disease control, 0 = no control; for pest or weed control at 250 ppm / pest or weed control at 50 ppm: Blumeria graminis, 192 h
Text: as §1
The test suspension was sprayed to the point of run-off on wheat seedlings. The following day the seedlings were inoculated with a spore dust of Blumeria graminis f. sp. Tritici, (also known as Erysiphe graminis f. sp. Tritici, the causal agent of wheat powdery mildew) and incubated in a growth chamber at 20° C. for 8 days, after which time visual disease ratings were made.
as §2

Phakopsora pachyrhizi = assay: Test D: preventive spray on soybean seedlings, Asian soybean rust disease rating; conditions: 100 = 100% disease control, 0 = no control; for pest or weed control at 250 ppm / pest or weed control at 50 ppm: Phakopsora pachyrhizi, 216 h
Text: as §1
The test solution was sprayed to the point of run-off on soybean seedlings. The following day the seedlings were inoculated with a spore suspension of Phakopsora pachyrhizi (the causal agent of Asian soybean rust) and incubated in a saturated atmosphere at 22° C. for 24 h and then moved to a growth chamber at 22° C. for 8 days, after which time visual disease ratings were made.
as §2

Botrytis cinerea = assay: Test E: preventive spray on tomato seedlings, tomato Botrytis disease rating; conditions: 100 = 100% disease control, 0 = no control; for pest or weed control at 250 ppm / pest or weed control at 50 ppm: Botrytis cinerea, 120 h
Text: as §1
The test suspension was sprayed to the point of run-off on tomato seedlings. The following day the seedlings were inoculated with a spore suspension of Botrytis cinerea (the causal agent of tomato Botrytis) and incubated in a saturated atmosphere at 20° C. for 48 h, and then moved to a growth chamber at 24° C. for 3 days, after which time visual disease ratings were made.
as §2

Alternaria solani = assay: Test F: preventive spray on tomato seedlings, tomato early blight disease rating; conditions: 100 = 100% disease control, 0 = no control; for pest or weed control at 250 ppm / pest or weed control at 50 ppm: Alternaria solani, 120 h
Text: as §1, §2

| SMILES | Test A disease control rating (Zymoseptoria tritici; 50 ppm) [%] | Test B disease control rating ([1]; 50 ppm) [%] | Test C disease control rating ([2]; 50 ppm) [%] | Test D disease control rating (Phakopsora pachyrhizi; 50 ppm) [%] | Test E disease control rating (Botrytis cinerea; 50 ppm) [%] | Test F disease control rating (Alternaria solani; 50 ppm) [%] | pest or weed control at 50 ppm (Zymoseptoria tritici; 50 ppm) [%] | pest or weed control at 50 ppm ([1]; 50 ppm) [%] | pest or weed control at 50 ppm ([2]; 50 ppm) [%] | pest or weed control at 50 ppm (Phakopsora pachyrhizi; 50 ppm) [%] | pest or weed control at 50 ppm (Botrytis cinerea; 50 ppm) [%] | pest or weed control at 50 ppm (Alternaria solani; 50 ppm) [%] | also measured |
| --- | --- | --- | --- | --- | --- | --- | --- | --- | --- | --- | --- | --- | --- |
| COc1cc(OC)cc(-c2nc(C)nc(C)c2-c2ccc(F)cc2Cl)c1 [Compound 44, 5-(2-chloro-4-fluorophenyl)-4-(3,5-dimethoxyphenyl)-2,6-dimethylpyrimidine] |  |  |  |  |  |  |  |  |  |  |  |  | pest or weed control at 250 ppm (Zymoseptoria tritici; 250 ppm): 99%; pest or weed control at 250 ppm ([1]; 250 ppm): 100%; pest or weed control at 250 ppm ([2]; 250 ppm): 99%; pest or weed control at 250 ppm (Phakopsora pachyrhizi; 250 ppm): 95%; pest or weed control at 250 ppm (Botrytis cinerea; 250 ppm): 99%; pest or weed control at 250 ppm (Alternaria solani; 250 ppm): 98% |
| COc1cc(OC)cc(-c2nc(Cl)nc(C)c2-c2ccc(F)cc2Cl)c1 [Compound 47] |  |  |  |  |  |  |  |  |  |  |  |  | Test A disease control rating (Zymoseptoria tritici; 250 ppm): 100%; Test B disease control rating ([1]; 250 ppm): 100%; Test C disease control rating ([2]; 250 ppm): 98%; Test D disease control rating (Phakopsora pachyrhizi; 250 ppm): 98%; Test E disease control rating (Botrytis cinerea; 250 ppm): 93%; Test F disease control rating (Alternaria solani; 250 ppm): 92% |
| COc1cc(OC)c(Cl)c(-c2nc(Cl)nc(C)c2-c2c(F)cccc2F)c1 [Compound 48, 2-chloro-4-(2-chloro-3,5-dimethoxyphenyl)-5-(2,6-difluorophenyl)-6-methylpyrimidine] |  |  |  |  |  |  |  |  |  |  |  |  | pest or weed control at 250 ppm (Zymoseptoria tritici; 250 ppm): 100%; pest or weed control at 250 ppm ([1]; 250 ppm): 100%; pest or weed control at 250 ppm ([2]; 250 ppm): 100%; pest or weed control at 250 ppm (Phakopsora pachyrhizi; 250 ppm): 100%; pest or weed control at 250 ppm (Botrytis cinerea; 250 ppm): 99%; pest or weed control at 250 ppm (Alternaria solani; 250 ppm): 100% |
| COc1cc(OC)c(Cl)c(-c2nc(Cl)nc(C)c2-c2ccc(F)cc2Cl)c1 [Compound 49, 2-chloro-4-(2-chloro-3,5-dimethoxyphenyl)-5-(2-chloro-4-fluorophenyl)-6-methylpyrimidine] |  |  |  |  |  |  |  |  |  |  |  |  | pest or weed control at 250 ppm (Zymoseptoria tritici; 250 ppm): 100%; pest or weed control at 250 ppm ([1]; 250 ppm): 100%; pest or weed control at 250 ppm ([2]; 250 ppm): 100%; pest or weed control at 250 ppm (Phakopsora pachyrhizi; 250 ppm): 100%; pest or weed control at 250 ppm (Botrytis cinerea; 250 ppm): 96%; pest or weed control at 250 ppm (Alternaria solani; 250 ppm): 100% |
| COc1ccc(Cl)c(-c2nc(C)nc(C)c2-c2ccc(F)cc2Cl)c1 [Compound 50, 5-(2-chloro-4-fluorophenyl)-4-(2-chloro-5-methoxyphenyl)-2,6-dimethylpyrimidine] |  |  |  |  |  |  |  |  |  |  |  |  | pest or weed control at 250 ppm (Zymoseptoria tritici; 250 ppm): 100%; pest or weed control at 250 ppm ([1]; 250 ppm): 100%; pest or weed control at 250 ppm ([2]; 250 ppm): 100%; pest or weed control at 250 ppm (Phakopsora pachyrhizi; 250 ppm): 100%; pest or weed control at 250 ppm (Botrytis cinerea; 250 ppm): 99%; pest or weed control at 250 ppm (Alternaria solani; 250 ppm): 100% |
| COc1cc(OC)cc(-c2ncnc(OC)c2-c2c(F)cc(F)cc2F)c1 [Compound 51] | 0 | 9 | 0 | 8 | 30 | 0 |  |  |  |  |  |  |  |
| COc1cc(OC)cc(-c2nc(C)nc(Cl)c2-c2ccc(F)cc2Cl)c1 [Compound 52] |  |  |  |  |  |  |  |  |  |  |  |  | Test A disease control rating (Zymoseptoria tritici; 250 ppm): 100%; Test B disease control rating ([1]; 250 ppm): 89%; Test C disease control rating ([2]; 250 ppm): 99%; Test D disease control rating (Phakopsora pachyrhizi; 250 ppm): 13%; Test E disease control rating (Botrytis cinerea; 250 ppm): 94%; Test F disease control rating (Alternaria solani; 250 ppm): 26% |
| COc1cc(OC)cc(-c2nc(C)nc(C)c2-c2c(F)cc(F)cc2F)c1 [Compound 53, 4-(3,5-dimethoxyphenyl)-2,6-dimethyl-5-(2,4,6-trifluorophenyl)pyrimidine] |  |  |  |  |  |  | 100 | 100 | 100 | 97 | 96 | 97 |  |
| COc1cc(OC)c(Cl)c(-c2nc(C)nc(C)c2-c2c(F)cc(F)cc2F)c1 [Compound 54, 4-(2-chloro-3,5-dimethoxyphenyl)-2,6-dimethyl-5-(2,4,6-trifluorophenyl)pyrimidine] |  |  |  |  |  |  | 100 | 100 | 100 | 100 | 97 | 99 |  |
| COc1cc(OC)c(Cl)c(-c2nc(C)nc(C)c2-c2c(F)cccc2F)c1 [Compound 55] | 100 | 100 | 100 | 100 | 99 | 99 |  |  |  |  |  |  |  |
| CCc1nc(C)nc(-c2cc(OC)cc(OC)c2Cl)c1-c1ccc(F)cc1Cl [Compound 56, 4-(2-chloro-3,5-dimethoxyphenyl)-5-(2-chloro-4-fluorophenyl)-6-ethyl-2-methylpyrimidine] |  |  |  |  |  |  | 100 | 100 | 100 | 88 | 94 | 91 |  |
| CCc1nc(C)nc(-c2cc(OC)cc(OC)c2Cl)c1-c1c(F)cccc1F [Compound 57, 4-(2-chloro-3,5-dimethoxyphenyl)-5-(2,6-difluorophenyl)-6-ethyl-2-methylpyrimidine] |  |  |  |  |  |  | 100 | 100 | 100 | 73 | 96 | 97 |  |
| COc1cc(OC)cc(-c2nc(C)nc(OC)c2-c2ccc(F)cc2Cl)c1 [Compound 58] | 24 | 0 | 21 | 0 | 79 | 0 |  |  |  |  |  |  |  |
| COc1cc(OC)c(Br)c(-c2nc(C)nc(C)c2-c2ccc(F)cc2Cl)c1 [Compound 59, 4-(2-bromo-3,5-dimethoxyphenyl)-2,6-dimethyl-5-(2-chloro-4-fluorophenyl)pyrimidine] |  |  |  |  |  |  | 100 | 100 | 100 | 100 | 88 | 98 |  |
| COc1cc(OC)cc(-c2c(-c3c(F)cc(F)cc3F)noc(=O)c2C)c1 [Compound 60] | 82 | 99 | 96 | 75 | 87 | 62 |  |  |  |  |  |  |  |
| COc1cc(OC)cc(-c2c(-c3ccc(F)cc3F)noc(=O)c2C)c1 [Compound 61] | 63 | 55 | 0 | 0 | 83 | 0 |  |  |  |  |  |  |  |
| COc1cc(OC)c(Cl)c(-c2c(-c3ccc(F)cc3F)noc(=O)c2C)c1 [Compound 62] | 100 | 99 | 76 | 87 | 97 | 0 |  |  |  |  |  |  |  |
| COc1cc(OC)c(Br)c(-c2c(-c3ccc(F)cc3F)noc(=O)c2C)c1 [Compound 63] | 100 | 100 | 56 | 0 | 97 | 0 |  |  |  |  |  |  |  |
| COc1cc(-c2cc(C#N)c(=O)n(C)c2-c2c(F)cc(F)cc2F)cc(OC)c1Cl [Compound 71, 5-(4-chloro-3,5-dimethoxyphenyl)-1,2-dihydro-1-methyl-2-oxo-6-(2,4,6-trifluorophenyl)-3-pyridinecarbonitrile] |  |  |  |  |  |  | 87 | 99 | 47 | 92 | 63 | 0 |  |
